Assay results published in the kinase profiling compilation of Christmann-Franck et al. (2016).

Columns and labels:
Experiment in all cases: radiometric filter-binding kinase assay, Kinase HotSpot
Conditions in all cases: compound 0.5 µM; ATP 10 µM
[1] = target: NEK7 (human) (UniProt Q8TDX7)
[2] = target: PLK1 (human) (UniProt P53350)
[3] = target: INSRR (human) (UniProt P14616)
[4] = target: MAPK13 (human) (UniProt O15264)
[5] = target: PRKCZ (human) (UniProt Q05513)
[6] = target: HCK (human) (UniProt P08631)
[7] = target: MST4 (human) (UniProt Q9P289)
[8] = target: CDK7 CCNH MNAT1 (human) (UniProt P50613+P51948+P51946)
[9] = target: MAPK12 (human) (UniProt P53778)
[10] = target: GSG2 (human) (UniProt Q8TF76)
[11] = target: WEE1 (human) (UniProt P30291)
[12] = target: CSNK1D (human) (UniProt P48730)
[13] = target: BMX (human) (UniProt P51813)
[14] = target: TAOK1 (human) (UniProt Q7L7X3)
[15] = target: STK11 (human) (UniProt Q15831)
[16] = target: WNK2 (human) (UniProt Q9Y3S1)
[17] = target: STK17A (human) (UniProt Q9UEE5)
[18] = target: DDR2 (human) (UniProt Q16832)
[19] = target: EPHA8 (human) (UniProt P29322)
[20] = target: PRKCB1 (human) (UniProt P05771)
[21] = target: IKBKE (human) (UniProt Q14164)
[22] = target: CDK4 CCND3 (human) (UniProt P30281+P11802)
[23] = target: SGK2 (human) (UniProt Q9HBY8)
[24] = target: EPHA7 (human) (UniProt Q15375)
[25] = target: PKN2 (human) (UniProt Q16513)
[26] = target: MARK4 (human) (UniProt Q96L34)
[27] = target: HIPK2 (human) (UniProt Q9H2X6)
[28] = target: YES1 (human) (UniProt P07947)
[29] = target: DCLK2 (human) (UniProt Q8N568)
[30] = target: SRC (human) (UniProt P12931)
[31] = target: DMPK (human) (UniProt Q09013)
[32] = target: RPS6KA5 KD2 (human) (UniProt O75582)
[33] = target: BLK (human) (UniProt P51451)
[34] = target: FGFR3 (human) (UniProt P22607)
[35] = target: GRK4 (human) (UniProt P32298)
[36] = target: AKT2 (human) (UniProt P31751)
[37] = target: CDK5 CDK5R1 p25 (human) (UniProt Q00535+Q15078)
[38] = target: TGFBR2 (human) (UniProt P37173)
[39] = target: ZAP70 (human) (UniProt P43403)
[40] = target: FGFR1 (human) (UniProt P11362)
[41] = target: PAK4 (human) (UniProt O96013)
[42] = target: RPS6KB2 (human) (UniProt Q9UBS0)

TAOK1 (human), sequence (Q7L7X3 whole entry, looked up): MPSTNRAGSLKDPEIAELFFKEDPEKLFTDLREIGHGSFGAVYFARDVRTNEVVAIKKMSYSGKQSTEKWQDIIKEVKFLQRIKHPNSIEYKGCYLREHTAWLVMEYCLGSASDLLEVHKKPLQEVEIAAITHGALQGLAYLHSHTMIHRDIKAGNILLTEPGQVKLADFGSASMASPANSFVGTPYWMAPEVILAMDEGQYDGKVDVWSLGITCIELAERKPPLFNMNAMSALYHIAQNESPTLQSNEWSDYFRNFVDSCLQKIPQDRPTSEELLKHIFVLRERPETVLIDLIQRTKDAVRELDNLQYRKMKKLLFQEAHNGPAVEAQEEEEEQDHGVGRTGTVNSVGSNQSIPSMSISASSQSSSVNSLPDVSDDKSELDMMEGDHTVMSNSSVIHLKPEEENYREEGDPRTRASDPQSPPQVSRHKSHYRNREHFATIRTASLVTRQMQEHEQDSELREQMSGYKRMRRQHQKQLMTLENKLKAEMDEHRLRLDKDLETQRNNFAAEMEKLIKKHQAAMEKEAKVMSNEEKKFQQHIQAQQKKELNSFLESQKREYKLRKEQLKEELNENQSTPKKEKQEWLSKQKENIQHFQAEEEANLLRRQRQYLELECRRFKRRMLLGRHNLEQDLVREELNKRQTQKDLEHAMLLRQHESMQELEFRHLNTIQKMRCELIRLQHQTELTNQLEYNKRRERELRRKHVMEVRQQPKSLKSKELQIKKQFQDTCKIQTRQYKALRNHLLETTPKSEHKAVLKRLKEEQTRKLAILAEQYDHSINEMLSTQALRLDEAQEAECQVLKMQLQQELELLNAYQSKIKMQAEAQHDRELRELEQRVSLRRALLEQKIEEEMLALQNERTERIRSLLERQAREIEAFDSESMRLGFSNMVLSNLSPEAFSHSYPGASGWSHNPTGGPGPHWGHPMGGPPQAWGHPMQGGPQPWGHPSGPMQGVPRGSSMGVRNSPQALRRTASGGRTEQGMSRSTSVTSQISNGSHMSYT
GSG2 (human), sequence (Q8TF76 whole entry, looked up): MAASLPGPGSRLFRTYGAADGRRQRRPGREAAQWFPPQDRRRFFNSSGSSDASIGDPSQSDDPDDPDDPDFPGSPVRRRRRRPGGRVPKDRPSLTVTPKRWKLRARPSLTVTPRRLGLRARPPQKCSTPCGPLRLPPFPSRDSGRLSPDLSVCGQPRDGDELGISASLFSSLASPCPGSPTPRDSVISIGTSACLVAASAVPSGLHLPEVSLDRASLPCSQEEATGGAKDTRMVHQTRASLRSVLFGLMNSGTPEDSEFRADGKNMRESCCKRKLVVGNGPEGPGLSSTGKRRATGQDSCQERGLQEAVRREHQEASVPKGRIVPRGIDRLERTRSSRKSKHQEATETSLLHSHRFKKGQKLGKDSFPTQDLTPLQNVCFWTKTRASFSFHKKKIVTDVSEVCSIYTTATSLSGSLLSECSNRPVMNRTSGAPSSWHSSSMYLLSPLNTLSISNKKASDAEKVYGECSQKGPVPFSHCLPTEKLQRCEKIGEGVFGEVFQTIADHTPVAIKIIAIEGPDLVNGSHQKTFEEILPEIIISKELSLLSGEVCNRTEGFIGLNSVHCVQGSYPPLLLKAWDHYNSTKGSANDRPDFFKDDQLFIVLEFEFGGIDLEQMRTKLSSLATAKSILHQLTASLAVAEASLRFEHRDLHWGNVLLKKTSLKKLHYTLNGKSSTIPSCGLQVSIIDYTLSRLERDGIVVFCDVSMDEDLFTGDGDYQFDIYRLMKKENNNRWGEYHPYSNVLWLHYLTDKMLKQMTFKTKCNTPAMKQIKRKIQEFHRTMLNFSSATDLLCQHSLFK
MAPK12 (human), sequence (P53778 whole entry, looked up): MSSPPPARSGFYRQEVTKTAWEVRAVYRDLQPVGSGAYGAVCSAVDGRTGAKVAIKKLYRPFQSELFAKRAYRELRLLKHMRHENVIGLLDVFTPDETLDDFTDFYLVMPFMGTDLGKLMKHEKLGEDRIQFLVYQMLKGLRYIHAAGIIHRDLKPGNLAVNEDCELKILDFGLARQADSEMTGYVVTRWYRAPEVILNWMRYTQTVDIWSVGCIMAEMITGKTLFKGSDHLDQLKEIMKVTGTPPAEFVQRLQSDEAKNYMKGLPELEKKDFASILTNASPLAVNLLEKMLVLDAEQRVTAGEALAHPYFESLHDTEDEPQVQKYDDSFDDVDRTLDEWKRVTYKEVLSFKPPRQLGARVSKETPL
PRKCZ (human), sequence (Q05513 whole entry, looked up): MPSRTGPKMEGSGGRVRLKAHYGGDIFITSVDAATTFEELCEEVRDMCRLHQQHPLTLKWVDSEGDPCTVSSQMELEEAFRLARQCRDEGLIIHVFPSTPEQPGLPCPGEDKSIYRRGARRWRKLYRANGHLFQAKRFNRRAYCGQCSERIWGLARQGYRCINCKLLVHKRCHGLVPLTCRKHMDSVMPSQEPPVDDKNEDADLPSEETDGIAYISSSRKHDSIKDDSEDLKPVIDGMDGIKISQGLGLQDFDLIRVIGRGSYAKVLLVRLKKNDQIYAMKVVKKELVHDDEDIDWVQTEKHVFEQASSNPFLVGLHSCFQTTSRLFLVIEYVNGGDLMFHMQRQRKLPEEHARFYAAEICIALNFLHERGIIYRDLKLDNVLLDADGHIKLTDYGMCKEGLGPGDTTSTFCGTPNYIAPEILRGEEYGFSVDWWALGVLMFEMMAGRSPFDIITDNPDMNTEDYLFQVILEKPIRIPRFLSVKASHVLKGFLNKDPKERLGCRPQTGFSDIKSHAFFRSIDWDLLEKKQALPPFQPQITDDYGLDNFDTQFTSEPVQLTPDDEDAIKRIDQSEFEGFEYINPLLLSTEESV
CSNK1D (human), sequence (P48730 whole entry, looked up): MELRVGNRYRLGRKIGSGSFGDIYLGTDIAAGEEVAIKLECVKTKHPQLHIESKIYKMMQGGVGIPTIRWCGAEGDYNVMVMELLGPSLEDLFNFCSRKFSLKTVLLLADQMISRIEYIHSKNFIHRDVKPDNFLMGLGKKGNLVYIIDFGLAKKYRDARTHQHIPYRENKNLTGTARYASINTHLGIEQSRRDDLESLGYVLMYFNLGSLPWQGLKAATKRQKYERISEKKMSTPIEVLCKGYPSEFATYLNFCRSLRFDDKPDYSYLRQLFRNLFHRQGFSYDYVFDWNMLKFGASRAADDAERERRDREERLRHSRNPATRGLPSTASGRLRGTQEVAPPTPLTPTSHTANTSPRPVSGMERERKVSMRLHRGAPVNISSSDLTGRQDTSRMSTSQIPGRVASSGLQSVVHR
INSRR (human), sequence (P14616 whole entry, looked up): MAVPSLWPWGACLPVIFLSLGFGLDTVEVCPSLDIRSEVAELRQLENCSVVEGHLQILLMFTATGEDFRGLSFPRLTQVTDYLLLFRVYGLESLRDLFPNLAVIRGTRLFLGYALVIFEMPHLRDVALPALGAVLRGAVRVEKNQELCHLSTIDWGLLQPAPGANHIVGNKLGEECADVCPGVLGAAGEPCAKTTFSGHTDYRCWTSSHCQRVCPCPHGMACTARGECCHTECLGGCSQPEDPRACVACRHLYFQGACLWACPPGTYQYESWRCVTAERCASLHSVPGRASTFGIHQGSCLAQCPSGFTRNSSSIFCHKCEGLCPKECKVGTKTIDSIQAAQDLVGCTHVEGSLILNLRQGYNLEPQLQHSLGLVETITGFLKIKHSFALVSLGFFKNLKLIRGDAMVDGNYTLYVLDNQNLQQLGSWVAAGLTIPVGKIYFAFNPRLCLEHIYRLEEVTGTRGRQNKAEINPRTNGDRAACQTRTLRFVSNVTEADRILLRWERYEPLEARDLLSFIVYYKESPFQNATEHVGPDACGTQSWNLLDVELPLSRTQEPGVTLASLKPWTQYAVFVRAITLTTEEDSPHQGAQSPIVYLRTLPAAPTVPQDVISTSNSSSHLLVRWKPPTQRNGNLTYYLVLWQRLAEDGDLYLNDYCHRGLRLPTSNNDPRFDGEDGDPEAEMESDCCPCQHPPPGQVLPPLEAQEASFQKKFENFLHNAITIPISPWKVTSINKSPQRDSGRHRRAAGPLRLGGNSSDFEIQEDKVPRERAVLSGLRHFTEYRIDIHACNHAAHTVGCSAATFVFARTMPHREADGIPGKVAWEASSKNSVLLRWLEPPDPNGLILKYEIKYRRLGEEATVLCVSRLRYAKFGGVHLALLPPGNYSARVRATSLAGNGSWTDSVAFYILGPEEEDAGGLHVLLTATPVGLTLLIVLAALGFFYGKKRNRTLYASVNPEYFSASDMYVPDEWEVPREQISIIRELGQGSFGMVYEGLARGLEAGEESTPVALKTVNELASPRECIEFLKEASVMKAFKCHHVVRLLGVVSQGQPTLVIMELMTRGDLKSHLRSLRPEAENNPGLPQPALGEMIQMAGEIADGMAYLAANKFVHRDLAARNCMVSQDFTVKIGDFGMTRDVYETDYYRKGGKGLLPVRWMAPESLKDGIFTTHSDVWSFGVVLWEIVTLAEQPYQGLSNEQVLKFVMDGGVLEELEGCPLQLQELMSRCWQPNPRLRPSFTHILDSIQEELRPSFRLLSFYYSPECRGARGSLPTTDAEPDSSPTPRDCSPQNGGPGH
GRK4 (human), sequence (P32298 whole entry, looked up): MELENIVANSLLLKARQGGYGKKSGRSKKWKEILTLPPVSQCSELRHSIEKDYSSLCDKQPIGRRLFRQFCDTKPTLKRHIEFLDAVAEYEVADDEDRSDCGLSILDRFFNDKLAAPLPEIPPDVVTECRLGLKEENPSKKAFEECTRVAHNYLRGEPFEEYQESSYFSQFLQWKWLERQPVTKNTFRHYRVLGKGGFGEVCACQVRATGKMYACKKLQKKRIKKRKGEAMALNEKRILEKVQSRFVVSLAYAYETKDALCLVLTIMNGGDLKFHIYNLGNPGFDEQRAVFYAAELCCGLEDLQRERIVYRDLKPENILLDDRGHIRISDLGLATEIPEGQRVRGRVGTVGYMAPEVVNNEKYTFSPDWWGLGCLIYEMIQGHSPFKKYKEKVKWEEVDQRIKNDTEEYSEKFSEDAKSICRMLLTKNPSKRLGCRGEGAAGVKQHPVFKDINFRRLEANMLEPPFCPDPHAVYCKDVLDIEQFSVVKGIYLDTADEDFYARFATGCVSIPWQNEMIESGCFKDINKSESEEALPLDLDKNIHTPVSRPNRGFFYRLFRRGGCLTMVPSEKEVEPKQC

Q: Which results are given for `COc1cc2ncnc(Nc3cccc(Cl)c3)c2cc1OC`?
A: residual activity [1]: 99%; residual activity [2]: 105%; residual activity [3]: 99%; residual activity [4]: 99.8%; residual activity [5]: 102%; residual activity [6]: 61.8%; residual activity [7]: 108%; residual activity [8]: 99.9%; residual activity [9]: 98.5%; residual activity [10]: 84.8%; residual activity [11]: 92.4%; residual activity [12]: 100%; residual activity [13]: 88.6%; residual activity [14]: 108%; residual activity [15]: 96.8%; residual activity [16]: 98.6%; residual activity [17]: 95.4%; residual activity [18]: 99.2%; residual activity [19]: 81.5%; residual activity [20]: 103%; residual activity [21]: 101%; residual activity [22]: 103%; residual activity [23]: 97.8%; residual activity [24]: 65%; residual activity [25]: 89.8%; residual activity [26]: 98.5%; residual activity [27]: 88.8%; residual activity [28]: 59.9%; residual activity [29]: 94.7%; residual activity [30]: 71.9%; residual activity [31]: 102%; residual activity [32]: 97.8%; residual activity [33]: 68.2%; residual activity [34]: 88.5%; residual activity [35]: 102%; residual activity [36]: 84.1%; residual activity [37]: 87.3%; residual activity [38]: 94.5%; residual activity [39]: 102%; residual activity [40]: 84.9%; residual activity [41]: 76.5%; residual activity [42]: 105%
